# Measurements from patent US5814646A, “Inhibitors of amyloid beta-protein production” (Eli Lilly and Company, priority 1995, dated 1998).
# Tested on: Aβ production in 293 751 SWE and CHO 751 SWE cells (transfected with APP-751 Swedish mutation)
# Test: Aβ production inhibition activity in cells (Aβ ELISA of conditioned media, normalized for cytotoxicity by MTT)
# Format: cell-based
# Details: 5 μg/ml
# Method: Two cell lines (human kidney cell line 293 and Chinese hamster ovary cell line CHO) were stably transfected with the gene for APP-751 containing the double mutation Lys651 -Met652 to Asn651 -Leu652 (APP-751 numbering) commonly called the Swedish mutation using the method described in Citron et al., (1992) Nature 360:672-674. The transfected cell lines were designated as 293 751 SWE and CHO 751 SWE, and were plated in Corning 96 well plates at 2.5×10^4 or 1×10^4 cells per well respectively in Dulbecco's minimal essential media plus 10% fetal bovine serum. Following overnight incubation at 37° C. in an incubator equilibrated with 10% carbon dioxide (CO2), the media were removed and replaced with 200 μL per well of media containing a test compound. After a two hour pretreatment period, the media were again removed and replaced with fresh media containing the test compound and the cells were incubated for an additional two hours.
# Test compound stocks were prepared in DMSO such that at the final concentration used in the treatment, the concentration of DMSO did no exceed 0.5%. After treatment, plates were centrifuged in a Beckman GPR at 1200 rpm for five minutes at room temperature to pellet cellular debris from the conditioned media. From each well, 100 μL of conditioned media were transferred into an ELISA plate precoated with antibody 266 against βAP-13-28 (Seubert et al., supra.) and stored at 4° C. overnight. An ELISA assay employing labeled antibody 6C6 (against βAP-1-16) was run the next day to measure the amount of Aβ produced.
# Cytotoxic effects of the test compounds were measured by a modification of the method of Hansen et al., (1989) J. Immun. Meth. 119:203-210. To the cells remaining in the tissue culture plate, was added 25 μL of a 3, (4,5-dimethylthiazol-2-yl)2,5-diphenyltetrazolium bromide (MTT) stock solution (5 mg/mL) to a final concentration of […]. Cells were incubated at 37° C. for one hour, and cellular activity was stopped by the addition of an equal volume of MTT lysis buffer (20% w/v sodium dodecylsulfate in 50% DMF, pH 4.7). Complete extraction was achieved by overnight shaking at room temperature. The difference in the OD562 nm and the OD650 nm was measured in a Molecular Devices UVmax microplate reader as an indicator of the cellular viability.
# The results of the Aβ ELISA were fit to a standard curve and expressed as ng/mL Aβ peptide. In order to normalize for cytotoxicity, these Aβ results were divided by the MTT results and expressed as a percentage of the results from a drug -free control.
# The test compounds were assayed for Aβ production inhibition activity in cells at […] using the test. The results presented in Table 1 are the mean and standard deviation of at least six replicate assays. IC50 means the concentration of test compound in micromoles/liter required to inhibit Aβ production by 50%.
row,Structure (SMILES),inhibition at 5 µg/mL
1,CCCCc1ccc(COc2ccc(CN(O)C(=S)NCc3ccccc3)cc2)cc1 [Compound 62],17%
2,COc1cc(COc2ccc(CN(O)C(=S)NCc3ccccc3)cc2)cc(OC)c1 [Compound 60],17%

# Same assay, conditions: 10 μg/ml, % of drug-free control, normalized to MTT
Structure (SMILES),inhibition at 10 µg/mL,"Aβ Production Inhibition Activity, % inhibition at 10 μg/ml"
CSc1ccc(NC(=O)Nc2ccccc2Cl)cc1 [Compound 157],41%,
CC(C)(C)c1ccc(S(=O)(=O)c2cccc(CN(O)C(=S)NCc3ccccc3)c2)cc1 [Compound 92],25%,
CCCCCCNC(=S)Nc1ccccc1Oc1ccc(C(C)(C)C)cc1 [Compound 185],21%,
CN(Cc1cccc(Oc2ccc(C(C)(C)C)cc2)c1)C(=S)NCc1ccc(Cl)c(Cl)c1 [Compound 44],40%,
CC(C)(C)c1ccc(Oc2ccc(NC(=S)NCc3cccnc3)cc2)cc1 [Compound 121],37%,
COC(=O)c1ccccc1NC(=O)Nc1ccc(Cl)c(Cl)c1 [Compound 142],22%,
Cc1ccc(CNC(=S)N(O)C(C)c2cccc(Oc3ccc(C(C)(C)C)cc3)c2)cc1C (stereo not shown) [Compound 9],62%,
CS(=O)(=O)c1ccc(NC(=O)Nc2ccc(Cl)cc2)cc1 [Compound 161],40%,
CC(c1cccc(Oc2ccc(C(C)(C)C)cc2)c1)N(O)C(=S)NCc1ccc(Cl)c(Cl)c1 (stereo not shown) [Compound 2],77%,
CC(C)(C)OC(=O)N1CCCCC1CNC(=S)Nc1ccc(Oc2ccc(C(C)(C)C)cc2)cc1 (stereo not shown) [Compound 124],31%,
CCCCCCC(c1cccc(Oc2ccc(C(C)(C)C)cc2)c1)N(O)C(=S)NCc1ccccc1 (stereo not shown) [Compound 36],26%,
CC(c1cccc(Oc2ccc(C(C)(C)C)cc2)c1)N(O)C(=O)NCc1ccccc1 (stereo not shown) [Compound 46],68%,
CNC(=O)N(C)c1nnc(Br)s1 [Compound 254],11%,
CC(NC(=S)NCc1ccccc1)c1cccc(Oc2ccccc2)c1 (stereo not shown) [Compound 47],8%,
CCCCCCC(c1cccc(Oc2ccc(C(C)(C)C)cc2)c1)N(O)C(=S)Nc1ccc(Cl)c(C(F)(F)F)c1 (stereo not shown) [Compound 35],9%,
COc1ccccc1CNC(=S)Nc1ccc(Oc2ccc(C(C)(C)C)cc2)cc1 [Compound 109],37%,
CSc1cccc(NC(=O)Nc2nnc(C)s2)c1 [Compound 252],25%,
O=C(Nc1ccc(Cl)c(Cl)c1)c1ncco1 [Compound 241],,-8%
CCCc1c(COc2ccc(CN(O)C(=S)Nc3ccc(Cl)c(C(F)(F)F)c3)cc2)ccc(C(=O)c2ccccc2)c1O [Compound 69],14%,

# Same assay, conditions: 2 h pretreatment + 2 h incubation
row,Structure (SMILES),IC50
1,CC(C)(C)c1ccc(Oc2ccc(NC(=S)NCC3CCCCN3)cc2)cc1 (stereo not shown) [Compound 126],7 µM
2,"Cc1nnc(NC(=O)Nc2ccc(F)c(Cl)c2)s1 [Compound 250, 1-(5-methyl-1,3,4-thiadiazol-2-yl)-3-(4-fluoro-3-chlorophenyl)urea]",9.8 µM
3,CCCCCCNC(=S)N(O)Cc1cccc(S(=O)(=O)c2ccc(C(C)(C)C)cc2)c1 [Compound 90],22 µM
4,CC(C)(C)c1ccc(-c2ccc(CN(O)C(=S)Nc3ccc(Cl)c(C(F)(F)F)c3)cc2)cc1 [Compound 83],12.4 µM
5,CCCCCCNC(=S)N(O)C(CC)c1cccc(Oc2ccc(C(C)(C)C)cc2)c1 (stereo not shown) [Compound 24],8.8 µM
6,CC(C)(C)c1cccc(Oc2ccc(NC(=S)Nc3ccc(Cl)c(C(F)(F)F)c3)cc2)c1 [Compound 169],4.6 µM
7,CCC(c1cccc(Oc2ccc(C(C)(C)C)cc2)c1)N(O)C(=S)Nc1ccc(Cl)c(C(F)(F)F)c1 (stereo not shown) [Compound 23],11 µM
8,CCCc1cc(C(C)(C)C)ccc1Oc1ccc(NC(=S)NCc2ccccc2)cc1 [Compound 197],4.6 µM
9,CC(C)(C)c1ccc(Oc2ccc(NC(=S)NCc3ccc(F)cc3Cl)cc2)cc1 [Compound 130],7.2 µM
10,CC(C)(C)c1ccc(Oc2ccc(NC(=S)NCCCCc3ccccc3)cc2)cc1 [Compound 118],16.4 µM
11,CCCCCCNC(=S)N(O)Cc1cccc(NC(=O)c2ccc(C(C)(C)C)cc2)c1 [Compound 85],18.6 µM
12,CC(C)(C)c1ccc(Oc2ccc(NC(=S)NCc3cccc(F)c3)cc2)cc1 [Compound 112],7.6 µM
13,CC(C)(C)c1ccc(SCc2ccc(CN(O)C(=S)NCc3ccccc3)cc2)cc1 [Compound 94],13.1 µM
14,S=C(NCc1ccccc1)Nc1ccc(Cl)c(Cl)c1 [Compound 146],21.8 µM
15,CSc1cc(Cl)c(NC(=O)Nc2cccc(Cl)c2)cc1Cl [Compound 163],10.5 µM
16,CSc1ccc(NC(=O)Nc2ccc(SC)c(Br)c2)cc1 [Compound 164],14.4 µM
17,CC(C)(C)c1ccc(Oc2ccc(NC(=S)NCc3ccccc3Cl)cc2)cc1 [Compound 104],13.4 µM
18,CC(c1cccc(Oc2ccc(C(C)(C)C)cc2)c1)N(O)C(=S)NCc1ccc(Cl)cc1Cl (stereo not shown) [Compound 17],5.7 µM
19,"CCCCCCSc1nnc(NC(=O)Nc2ccc(Cl)c(Cl)c2)s1 [Compound 239, 1-(5-hexylthio-1,3,4-thiadiazol-2-yl)-3-(3,4-dichlorophenyl)urea]",1.4 µM

row,Structure (SMILES),IC50
1,CC(C)(C)c1ccc(COc2cccc(CN(O)C(=S)NCc3ccccc3)c2)cc1 [Compound 49],6.7 µM
2,CCC(c1cccc(Oc2ccc(C(C)(C)C)cc2)c1)N(O)C(=S)NCc1cccc(OC)c1 (stereo not shown) [Compound 21],5.6 µM
3,"Cc1nnc(NC(=O)Nc2ccc(Cl)c(Cl)c2)s1 [Compound 234, 1-(5-methyl-1,3,4-thiadiazol-2-yl)-3-(3,4-dichlorophenyl)urea]",5 µM
4,CCCC(c1cccc(Oc2ccc(C(C)(C)C)cc2)c1)N(O)C(=S)NCc1ccccc1 (stereo not shown) [Compound 29],7.5 µM
5,CCCCCCNC(=S)N(O)Cc1cccc(Oc2ccc(C(C)(C)C)cc2CCC)c1 [Compound 102],6.1 µM
6,CC(C)(C)c1ccc(Oc2ccc(NC(=S)Nc3ccccc3)cc2)cc1 [Compound 114],18.2 µM
7,S=C(Nc1ccc(Oc2ccccc2)cc1)Nc1ccc(Cl)c(Cl)c1 [Compound 148],7.5 µM
8,CC(C)(C)c1ccc(Oc2ccc(NC(=S)NCc3cccc(Br)c3)cc2)cc1 [Compound 107],7.2 µM
9,CCC(c1cccc(Oc2ccc(C(C)(C)C)cc2)c1)N(O)C(=S)NCc1ccccc1 (stereo not shown) [Compound 20],3.6 µM
10,CC(C)(C)c1cccc(Oc2cccc(N(O)C(=S)Nc3ccc(Cl)c(C(F)(F)F)c3)c2)c1 [Compound 173],2.8 µM
11,CCCCCCNC(=S)N(O)Cc1cccc(Sc2ccc(C(C)(C)C)cc2)c1 [Compound 87],9.9 µM
12,CC(C)(C)c1ccccc1Oc1ccc(NC(=S)Nc2cccc(C(F)(F)F)c2)cc1 [Compound 177],7.6 µM
13,CC(C)(C)c1ccc(Oc2ccc(CSC(=S)NCc3ccccc3)cc2)cc1 [Compound 198],10 µM
14,O=C(Nc1ccc(Cl)c(Cl)c1)c1nc(C(F)(F)F)no1 [Compound 247],4.4 µM
15,CC(C)(C)c1ccc(Oc2ccc(NC(=S)NCc3ccc(Cl)cc3)cc2)cc1 [Compound 106],9.2 µM
16,CC(C)(C)c1ccc(Oc2ccc(NC(=S)NCCCc3ccccc3)cc2)cc1 [Compound 117],17 µM
17,CC(C)(C)c1ccc(Oc2ccc(NC(=S)NCCc3ccccc3)cc2)cc1 [Compound 116],19.8 µM
18,CC(c1cccc(Oc2ccc(C(C)(C)C)cc2)c1)N(O)C(=S)NCc1ccccc1 (stereo not shown) [Compound 1],11.2 µM
